Tests used:
Test in all cases: Cultures and tests of inhibition (culture agar, Petri box)
Format in all cases: cell-based
Details in all cases: added to the culture agar; inhibition haloes in the Petri box
staphylococcus aureus = system: staphylococcus aureus
pseudomona = system: pseudomona
E. Coli = system: E. Coli

Measured: inhibition of growth

OCl [Hypochlorous acid]
full inhibition: all assays above

From patent US7323118B2, “Composition of hypochlorous acid and its applications” (Aquilabs S.A., priority 2001, dated 2008)
